Assay results published in ChEMBL document CHEMBL1201862, “PubChem BioAssay data set” (2004).
Active and inactive are the calls of the source.

Assays:
[1] = biological target: NS3 (Hepatitis C virus, UniProt A3EZJ3); assay: PubChem AID 2173; parameters: species or system Hepacivirus hominis
[2] = biological target: Cytochrome P450 3A4 (Homo sapiens, UniProt P08684);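 further: CYP3A4 tested as one member of a cytochrome P450 panel screen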
[3] = biological target: T1, Cytochrome P450 1A2 (Homo sapiens, UniProt P05177);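 further: PubChem cytochrome P450 panel assay, CYP1A2 panel member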
T1 sequence (P05177 whole entry): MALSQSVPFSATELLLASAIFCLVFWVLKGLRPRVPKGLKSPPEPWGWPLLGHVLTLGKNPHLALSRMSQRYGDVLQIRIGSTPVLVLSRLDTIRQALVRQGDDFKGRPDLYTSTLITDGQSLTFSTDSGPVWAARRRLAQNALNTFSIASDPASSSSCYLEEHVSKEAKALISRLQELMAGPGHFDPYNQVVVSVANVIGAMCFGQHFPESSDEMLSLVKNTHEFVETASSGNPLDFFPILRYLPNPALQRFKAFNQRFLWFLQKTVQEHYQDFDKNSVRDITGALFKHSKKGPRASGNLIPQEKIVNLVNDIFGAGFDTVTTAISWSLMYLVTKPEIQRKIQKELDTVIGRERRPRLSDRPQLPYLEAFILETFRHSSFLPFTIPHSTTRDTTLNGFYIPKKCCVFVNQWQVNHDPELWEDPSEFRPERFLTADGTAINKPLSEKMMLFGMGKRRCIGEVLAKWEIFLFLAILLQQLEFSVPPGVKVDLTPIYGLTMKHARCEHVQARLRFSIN

[4] = test system: HEK293; assay: Fluorescence-based counterscreen for potentiators or agonists of NPY-Y2: cell-based high-throughput dose response assay to identify inhibitors of cyclic nucleotide gated ion channel (CNGC) activity. In this assay, the parental HEK293 cell line transfected with a cyclic-nucleotide gated ion channel (CNGC)-based cAMP sensor is used to measure inhibition of isoproterenol-induced CNGC activity by test compound.; assay type: functional; conditions: Homo sapiens;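 further: stimulus is 1 µM isoproterenol at EC100 plus PDE inhibitor Ro 20-1724 at 25 µM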
[5] = biological target: T2, Neuropeptide Y receptor type 1 (Homo sapiens, UniProt P25929); assay: Fluorescence-based counterscreen for agonists of NPY-Y2: cell-based high-throughput dose response assay for agonists of NPY-Y1.; assay type: functional
T2 sequence (P25929 whole entry): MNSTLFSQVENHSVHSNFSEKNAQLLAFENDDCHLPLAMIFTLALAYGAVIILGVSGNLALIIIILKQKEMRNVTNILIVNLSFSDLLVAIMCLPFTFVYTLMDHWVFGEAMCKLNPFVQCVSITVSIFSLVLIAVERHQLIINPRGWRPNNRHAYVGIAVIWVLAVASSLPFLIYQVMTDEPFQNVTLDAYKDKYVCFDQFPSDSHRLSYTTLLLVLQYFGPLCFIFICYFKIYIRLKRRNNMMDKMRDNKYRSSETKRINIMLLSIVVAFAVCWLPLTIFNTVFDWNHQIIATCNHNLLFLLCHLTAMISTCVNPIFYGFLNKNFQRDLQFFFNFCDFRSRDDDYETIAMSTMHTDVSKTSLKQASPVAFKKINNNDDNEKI

[6] = biological target: T3, Neuropeptide Y receptor type 2 (Homo sapiens, UniProt P49146); assay: Fluorescence-based cell-based high-throughput dose response assay for agonists of NPY-Y2. [Related pubchem assays: 1703 (Screening assay (CNGC inhibitors).), 1359 (Screening assay (NPY-Y2 potentiators or agonists).), 1304 (Screening assay (NPY-Y1 potentiators or agonists).), 1710 (Screening assay (NPY-Y2 agonists).), 1791 (Summary AID.)]; assay type: functional
T3 sequence (P49146 whole entry): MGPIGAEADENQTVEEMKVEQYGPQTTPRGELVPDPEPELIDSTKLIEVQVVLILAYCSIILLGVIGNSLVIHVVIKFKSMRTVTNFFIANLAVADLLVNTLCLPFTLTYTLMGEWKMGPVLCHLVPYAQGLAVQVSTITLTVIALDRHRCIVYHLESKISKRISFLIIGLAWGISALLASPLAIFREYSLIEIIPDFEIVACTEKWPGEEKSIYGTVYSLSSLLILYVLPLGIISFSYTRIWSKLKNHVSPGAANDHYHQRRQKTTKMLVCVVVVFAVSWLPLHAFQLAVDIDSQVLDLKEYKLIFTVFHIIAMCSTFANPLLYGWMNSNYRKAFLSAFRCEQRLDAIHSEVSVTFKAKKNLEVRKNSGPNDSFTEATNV

[7] = biological target: T4, Probable nicotinate-nucleotide adenylyltransferase (Staphylococcus aureus (strain N315), UniProt P65502); assay type: functional, Staphylococcus aureus subsp. aureus N315;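 on IC50 Mean: confirmatory dose-response retesting of NadD inhibitor hits first found in an ultra-high-throughput screen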
[8] = biological target: T4, Probable nicotinate-nucleotide adenylyltransferase; assay type: functional, Staphylococcus aureus subsp. aureus N315; conditions: read-out: IC50_Mean
[9] = biological target: T5, Alkaline phosphatase, tissue-nonspecific isozyme (Homo sapiens, UniProt P05186)
T5 sequence (P05186 whole entry): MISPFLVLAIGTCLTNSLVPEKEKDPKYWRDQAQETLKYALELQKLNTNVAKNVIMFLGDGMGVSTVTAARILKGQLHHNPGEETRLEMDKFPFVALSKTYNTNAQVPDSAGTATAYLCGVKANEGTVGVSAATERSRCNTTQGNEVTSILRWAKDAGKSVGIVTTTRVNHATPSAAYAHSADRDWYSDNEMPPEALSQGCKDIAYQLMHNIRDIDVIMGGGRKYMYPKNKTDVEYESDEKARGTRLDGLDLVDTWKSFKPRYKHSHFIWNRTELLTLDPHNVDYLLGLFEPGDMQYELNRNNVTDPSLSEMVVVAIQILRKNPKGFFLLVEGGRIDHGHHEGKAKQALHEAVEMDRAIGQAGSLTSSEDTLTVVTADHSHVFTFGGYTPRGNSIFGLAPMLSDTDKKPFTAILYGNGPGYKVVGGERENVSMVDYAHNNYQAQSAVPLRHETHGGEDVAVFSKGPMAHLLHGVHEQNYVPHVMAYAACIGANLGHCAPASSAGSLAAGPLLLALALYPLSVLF

[10] = biological target: Cytochrome P450 2D6 (Homo sapiens, UniProt P10635); assay: qHTS Assay for Inhibitors and Substrates of Cytochrome P450 2D6. [Related pubchem assays: 410 ]; assay type: ADME; conditions: read-out: Potency
[11] = biological target: Signal transducer and activator of transcription 3 (Homo sapiens, UniProt P40763); assay: STAT3 activation with BCL3 mRNA and toxicity – cell-based, […], BCL3 qPCR, cytotoxicity, late-stage follow-up, panel member STAT3 Activation (AID 2049)
[12] = biological target: Lysosomal acid glucosylceramidase (Homo sapiens, UniProt P04062); assay: Dose response cell-based high throughput screening assay to identify enhancers of beta-glucosidase activity. [Related pubchem assays: 784 ]; assay type: functional
[13] = biological target: Wee1-like protein kinase (Homo sapiens, UniProt P30291); assay: HeLa cell cycle G2/M accumulation – FACS, mechanism study for Wee1 degradation inhibitor project, late-stage follow-up, panel member Wee1 Degradation (AID 2088)
[14] = biological target: G2/mitotic-specific cyclin-B1 (Homo sapiens, UniProt P14635); assay: HeLa cell cycle G2/M accumulation – FACS, mechanism study for Wee1 degradation inhibitor project, late-stage follow-up, panel member Cyclin B Degradation (AID 2088)
[15] = biological target: Melanin-concentrating hormone receptor 1 (Homo sapiens, UniProt Q99705); assay: Fluorescence-based counterscreen for antagonists of the G-protein coupled receptor 7 (GPR7): cell-based high throughput dose response assay to identify antagonists of the melanin-concentrating hormone receptor 1 (MCHR1).; assay type: functional
[16] = biological target: T6, Neuropeptides B/W receptor type 1 (Homo sapiens, UniProt P48145); assay: Fluorescence-based dose response cell-based high throughput screening assay to identify antagonists of the G-protein coupled receptor 7 (GPR7). [Related pubchem assays: 1952 (Screening assay (GPR7 antagonists).), 1880 (Summary AID.)]; assay type: functional
T6 sequence (P48145 whole entry): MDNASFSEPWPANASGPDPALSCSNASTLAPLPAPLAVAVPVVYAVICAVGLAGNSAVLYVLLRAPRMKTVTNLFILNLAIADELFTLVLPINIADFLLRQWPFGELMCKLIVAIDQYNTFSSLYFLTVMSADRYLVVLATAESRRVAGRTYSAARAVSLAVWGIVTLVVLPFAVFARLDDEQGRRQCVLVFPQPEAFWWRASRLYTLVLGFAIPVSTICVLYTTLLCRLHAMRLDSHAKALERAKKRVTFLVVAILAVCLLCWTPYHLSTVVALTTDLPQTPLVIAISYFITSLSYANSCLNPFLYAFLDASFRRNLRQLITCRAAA

[17] = biological target: Mothers against decapentaplegic homolog 3 (Homo sapiens, UniProt P84022); assay: blockers of Smad3 complex formation in lysate – cell lysate, secondary confirmation, chemiluminescent ELISA, HEK293 lysate, dose response (AID 1058); assay type: functional
[18] = biological target: Eukaryotic translation initiation factor 4H (Homo sapiens, UniProt Q15056); assay: eIF4H binding inhibition – biochemical, uHTS, fluorescence polarization, translation initiation inhibitor project, primary screen (AID 2012)
[19] = biological target: Polyadenylate-binding protein 1 (Homo sapiens, UniProt P11940); assay: blockers of PABP interaction with poly(A) – biochemical, fluorescence polarization, […] (AID 2014)
[20] = biological target: Serine/threonine-protein phosphatase PP1-alpha catalytic subunit (Homo sapiens, UniProt P62136); assay: inhibition of protein phosphatase 1 activity – biochemical, fluorescence, dose response (AID 2403);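 further: phosphatase turnover of OMFP into fluorescent 3-O-methylfluorescein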
[21] = biological target: Serine/threonine-protein phosphatase (Homo sapiens, UniProt Q9BPW0); assay: Counterscreen for inhibitors of PP1: fluorescence-based biochemical high throughput dose response assay to identify inhibitors of Protein Phosphatase 5 (PP5). [Related pubchem assays: 2034 (Summary (PP5 inhibitors)), 1987 (PP5 inhibitors in singlate), 2235 (PP1 inhibitors in singlate)]
[22] = biological target: X-box-binding protein 1 (Homo sapiens, UniProt P17861); assay type: functional, Cricetulus griseus;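 further: confirmatory dose-response counter-screen serving a CHOP assay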
[23] = biological target: Neurotensin receptor type 1 (Homo sapiens, UniProt P30989); assay type: functional;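 further: Image-based confirmatory dose-response assay measuring agonist activity at NTR1; NTR1-expressing U2OS osteosarcoma cells imaged for beta-arrestin GFP spot formation; agonist potency where compounds increase beta-arrestin recruitment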
[24] = viability of HCT116 lacking mutant beta-catenin – cell-based, human colon tumor, dose response (AID 1045); assay type: functional;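 further: HCT116 colon tumor cells with beta catenin knocked out; cells exposed to compound for 60 hours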
[25] = viability of PTEN-deleted HCT116 cells – cell-based, HCT116 PTEN knockout, dose response (AID 1047); assay type: functional;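 further: HCT116 colon tumor cells with PTEN knocked out; cells exposed to compound for 60 hours before readout; potency for loss of cell viability measured by luminescence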
[26] = biological target: T7, Eukaryotic translation initiation factor 2-alpha kinase 3 (Homo sapiens, UniProt Q9NZJ5); assay: Counterscreen assay for PERK inhibitors: Dose response cell-based high throughput screening assay to measure inhibition of PERK at 6 hours. [Related pubchem assays: 1522, 1416 ]; assay type: functional
[27] = biological target: T7, Eukaryotic translation initiation factor 2-alpha kinase 3; assay: Dose response cell-based high-throughput screening assay to measure PERK inhibition. [Related pubchem assays: 1416 ]; assay type: functional
[28] = HEK-293T cell viability reduction – luminescence, B-cell screen hits, cytotoxicity control for BCR NF-kB inhibitor project, dose response (AID 489021); assay type: functional, cell-based;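 further: HEK-293T cells carrying an NF-kB luciferase reporter; cells exposed to compound for about 14 hours before viability readout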

T7 sequence (Q9NZJ5 whole entry): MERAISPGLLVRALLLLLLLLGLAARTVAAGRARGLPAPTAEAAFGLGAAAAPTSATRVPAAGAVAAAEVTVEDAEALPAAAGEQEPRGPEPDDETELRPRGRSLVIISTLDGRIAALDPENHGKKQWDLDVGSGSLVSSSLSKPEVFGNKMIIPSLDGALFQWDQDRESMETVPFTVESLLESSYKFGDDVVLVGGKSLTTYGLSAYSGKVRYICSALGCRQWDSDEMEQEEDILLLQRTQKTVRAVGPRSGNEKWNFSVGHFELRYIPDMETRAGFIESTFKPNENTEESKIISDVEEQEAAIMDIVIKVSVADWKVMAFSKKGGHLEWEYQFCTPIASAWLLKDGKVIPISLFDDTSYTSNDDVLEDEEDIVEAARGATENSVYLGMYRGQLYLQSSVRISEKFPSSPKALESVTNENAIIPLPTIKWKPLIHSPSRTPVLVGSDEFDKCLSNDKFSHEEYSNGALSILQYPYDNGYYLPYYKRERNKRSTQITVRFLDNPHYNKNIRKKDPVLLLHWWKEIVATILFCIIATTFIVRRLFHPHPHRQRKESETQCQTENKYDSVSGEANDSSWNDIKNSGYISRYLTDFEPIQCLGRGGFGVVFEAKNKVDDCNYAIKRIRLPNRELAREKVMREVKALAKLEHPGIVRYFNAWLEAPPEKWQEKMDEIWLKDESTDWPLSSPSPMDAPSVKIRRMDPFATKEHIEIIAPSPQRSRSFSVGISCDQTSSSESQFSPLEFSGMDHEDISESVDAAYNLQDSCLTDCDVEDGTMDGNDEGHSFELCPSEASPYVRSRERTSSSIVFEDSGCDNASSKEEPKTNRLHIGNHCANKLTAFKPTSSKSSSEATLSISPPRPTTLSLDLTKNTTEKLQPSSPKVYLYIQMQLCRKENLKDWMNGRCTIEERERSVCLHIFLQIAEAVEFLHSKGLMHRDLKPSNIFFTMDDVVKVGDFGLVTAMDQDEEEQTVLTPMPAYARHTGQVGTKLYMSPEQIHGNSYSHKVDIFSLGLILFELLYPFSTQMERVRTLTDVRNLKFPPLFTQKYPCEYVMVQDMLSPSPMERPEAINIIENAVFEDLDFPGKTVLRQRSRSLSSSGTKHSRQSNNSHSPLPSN
T4 sequence (P65502 whole entry): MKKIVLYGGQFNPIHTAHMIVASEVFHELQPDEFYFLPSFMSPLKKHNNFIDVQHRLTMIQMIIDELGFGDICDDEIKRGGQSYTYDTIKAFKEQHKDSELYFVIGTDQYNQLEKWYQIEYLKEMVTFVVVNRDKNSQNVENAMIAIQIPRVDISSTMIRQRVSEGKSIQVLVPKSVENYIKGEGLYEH
Serine/threonine-protein phosphatase PP1-alpha catalytic subunit, sequence (P62136 whole entry): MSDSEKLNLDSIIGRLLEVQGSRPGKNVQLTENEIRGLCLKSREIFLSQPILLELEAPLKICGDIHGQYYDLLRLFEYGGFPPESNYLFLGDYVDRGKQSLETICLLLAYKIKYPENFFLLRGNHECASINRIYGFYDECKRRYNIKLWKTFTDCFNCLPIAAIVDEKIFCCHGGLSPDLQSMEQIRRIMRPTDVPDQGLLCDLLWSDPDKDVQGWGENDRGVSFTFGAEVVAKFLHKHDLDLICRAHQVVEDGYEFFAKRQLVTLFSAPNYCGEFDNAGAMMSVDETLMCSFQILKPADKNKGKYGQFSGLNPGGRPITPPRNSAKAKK
Melanin-concentrating hormone receptor 1, sequence (Q99705 whole entry): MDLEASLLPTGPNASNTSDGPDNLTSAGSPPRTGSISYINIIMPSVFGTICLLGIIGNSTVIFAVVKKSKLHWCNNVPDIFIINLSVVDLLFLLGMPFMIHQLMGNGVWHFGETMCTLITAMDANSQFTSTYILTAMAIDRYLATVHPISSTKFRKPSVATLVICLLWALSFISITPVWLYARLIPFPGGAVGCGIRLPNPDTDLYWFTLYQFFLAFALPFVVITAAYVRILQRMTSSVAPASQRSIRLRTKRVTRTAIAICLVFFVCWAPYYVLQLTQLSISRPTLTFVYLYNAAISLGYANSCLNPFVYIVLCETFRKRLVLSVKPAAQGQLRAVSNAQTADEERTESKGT
Neurotensin receptor type 1, sequence (P30989 whole entry): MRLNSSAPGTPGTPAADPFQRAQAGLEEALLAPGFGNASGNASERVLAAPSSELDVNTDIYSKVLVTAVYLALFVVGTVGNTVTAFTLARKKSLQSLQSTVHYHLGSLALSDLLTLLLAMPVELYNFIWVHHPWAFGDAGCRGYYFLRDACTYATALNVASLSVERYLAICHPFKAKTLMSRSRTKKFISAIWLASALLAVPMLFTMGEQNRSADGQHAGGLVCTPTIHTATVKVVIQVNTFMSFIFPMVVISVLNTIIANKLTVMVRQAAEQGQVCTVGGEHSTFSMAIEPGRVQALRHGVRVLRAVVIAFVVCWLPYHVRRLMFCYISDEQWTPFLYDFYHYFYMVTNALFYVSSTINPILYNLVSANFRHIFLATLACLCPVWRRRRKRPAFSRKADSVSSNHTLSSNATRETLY
Polyadenylate-binding protein 1, sequence (P11940 whole entry): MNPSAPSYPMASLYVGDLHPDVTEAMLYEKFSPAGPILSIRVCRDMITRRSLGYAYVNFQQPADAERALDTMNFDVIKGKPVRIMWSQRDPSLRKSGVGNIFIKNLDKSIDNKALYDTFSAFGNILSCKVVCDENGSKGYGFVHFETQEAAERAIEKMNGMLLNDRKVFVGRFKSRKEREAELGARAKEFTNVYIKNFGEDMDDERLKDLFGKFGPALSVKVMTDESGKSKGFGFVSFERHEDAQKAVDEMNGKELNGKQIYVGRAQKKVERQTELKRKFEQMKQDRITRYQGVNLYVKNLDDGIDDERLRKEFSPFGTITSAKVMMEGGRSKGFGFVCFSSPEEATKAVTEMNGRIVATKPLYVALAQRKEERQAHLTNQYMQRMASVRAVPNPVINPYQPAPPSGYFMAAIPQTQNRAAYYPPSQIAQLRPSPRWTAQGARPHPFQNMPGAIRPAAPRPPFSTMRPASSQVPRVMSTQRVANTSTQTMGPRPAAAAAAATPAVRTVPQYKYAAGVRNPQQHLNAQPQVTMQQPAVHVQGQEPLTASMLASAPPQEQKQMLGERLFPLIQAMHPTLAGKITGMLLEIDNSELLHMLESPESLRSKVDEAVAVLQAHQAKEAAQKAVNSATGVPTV
NS3, sequence (A3EZJ3 whole entry): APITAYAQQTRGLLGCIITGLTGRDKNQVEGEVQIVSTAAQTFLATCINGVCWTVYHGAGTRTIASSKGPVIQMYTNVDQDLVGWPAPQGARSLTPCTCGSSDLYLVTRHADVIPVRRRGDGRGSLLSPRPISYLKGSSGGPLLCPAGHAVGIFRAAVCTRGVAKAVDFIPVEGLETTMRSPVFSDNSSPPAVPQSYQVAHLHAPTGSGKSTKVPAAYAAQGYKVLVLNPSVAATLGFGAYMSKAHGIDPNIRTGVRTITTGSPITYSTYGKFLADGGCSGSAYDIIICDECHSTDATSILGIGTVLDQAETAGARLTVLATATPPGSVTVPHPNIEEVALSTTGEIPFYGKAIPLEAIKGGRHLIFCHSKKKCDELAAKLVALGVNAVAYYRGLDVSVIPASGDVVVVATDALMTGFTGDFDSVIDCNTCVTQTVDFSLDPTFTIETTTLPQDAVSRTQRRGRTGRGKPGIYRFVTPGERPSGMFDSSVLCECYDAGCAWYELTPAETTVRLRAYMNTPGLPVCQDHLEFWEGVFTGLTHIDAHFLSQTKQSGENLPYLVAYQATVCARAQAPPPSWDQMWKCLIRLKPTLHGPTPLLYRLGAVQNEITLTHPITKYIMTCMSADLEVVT
Mothers against decapentaplegic homolog 3, sequence (P84022 whole entry): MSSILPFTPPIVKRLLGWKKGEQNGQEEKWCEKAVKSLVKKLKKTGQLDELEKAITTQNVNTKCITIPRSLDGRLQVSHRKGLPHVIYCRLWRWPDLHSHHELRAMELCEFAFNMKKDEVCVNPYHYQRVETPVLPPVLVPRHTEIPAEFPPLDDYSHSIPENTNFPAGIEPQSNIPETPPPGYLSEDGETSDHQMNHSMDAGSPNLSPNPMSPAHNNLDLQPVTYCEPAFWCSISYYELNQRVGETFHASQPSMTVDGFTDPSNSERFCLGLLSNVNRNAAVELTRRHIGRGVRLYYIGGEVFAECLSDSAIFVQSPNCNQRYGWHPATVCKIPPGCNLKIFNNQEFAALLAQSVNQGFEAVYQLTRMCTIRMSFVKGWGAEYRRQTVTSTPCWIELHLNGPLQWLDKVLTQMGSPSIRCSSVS
Cytochrome P450 2D6, sequence (P10635 whole entry): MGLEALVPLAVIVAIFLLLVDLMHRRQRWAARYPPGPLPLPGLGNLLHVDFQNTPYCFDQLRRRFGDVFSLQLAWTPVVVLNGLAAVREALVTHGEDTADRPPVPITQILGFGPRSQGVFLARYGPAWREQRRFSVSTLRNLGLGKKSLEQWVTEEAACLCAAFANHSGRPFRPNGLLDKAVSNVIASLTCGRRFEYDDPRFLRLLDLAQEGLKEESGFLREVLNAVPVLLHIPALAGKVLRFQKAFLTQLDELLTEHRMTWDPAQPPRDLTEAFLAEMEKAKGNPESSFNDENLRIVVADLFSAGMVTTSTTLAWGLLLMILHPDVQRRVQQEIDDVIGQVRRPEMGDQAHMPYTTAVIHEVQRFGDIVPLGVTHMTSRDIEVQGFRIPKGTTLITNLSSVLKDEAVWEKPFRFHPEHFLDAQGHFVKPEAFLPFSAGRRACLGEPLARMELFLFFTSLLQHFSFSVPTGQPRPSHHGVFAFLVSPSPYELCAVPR
X-box-binding protein 1, sequence (P17861 whole entry): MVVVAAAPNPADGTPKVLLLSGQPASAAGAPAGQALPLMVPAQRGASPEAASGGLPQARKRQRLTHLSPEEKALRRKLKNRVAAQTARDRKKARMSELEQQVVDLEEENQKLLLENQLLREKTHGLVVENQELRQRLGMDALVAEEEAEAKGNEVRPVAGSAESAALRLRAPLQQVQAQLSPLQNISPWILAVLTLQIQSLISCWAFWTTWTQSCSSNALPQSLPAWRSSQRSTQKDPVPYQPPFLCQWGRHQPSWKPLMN

For `Cc1ccc(C)c(N2CCN(C(=O)c3ccc4nc(-c5ccco5)c(-c5ccco5)nc4c3)CC2)c1`, the IC50 [1] was 14.2 µM (not active), the AC50 [2] was 20 µM (inconclusive) and the AC50 [3] was 15.8 µM (inconclusive).
In the case of `Nc1sc(-c2ccccc2)cc1-c1nnc(S)n1C1CCCCC1`, the EC50 [4] is reported as 22.5 µM (not active), the EC50 [5] is reported as 24.4 µM (not active) and the EC50 [6] is reported as 30.8 µM (not active).
For `COCc1cc(O)n2nc(-c3ccsc3-n3c(C)ccc3C)cc2n1`, the IC50 [7] was 13.3 µM (active), the IC50 [8] was 51.3 µM (active) and the EC50 [9] was > 100 µM (not active).
In the case of `CC(C)[C@@H]1OC(=O)\C=C/C=C\C=C/C=C\C=C/C[C@@H](O)[C@H](C)[C@@H](O)C[C@H](O)C[C@H](O)C[C@H](O)C[C@H](O)C[C@H](O)C[C@H](O)/C=C\[C@@H]1C`, the AC50 [10] is reported as 0.316 µM (inconclusive).
In the case of `COc1cccc(NC(=O)c2cc(C3CC3)on2)c1`, the EC50 [11] is reported as > 5.57 µM (inactive).
In the case of `CC1CCC(C(=O)NC(C(=O)NCCCN2CCOCC2)C(C)C)CC1` (stereo not drawn), the EC50 [12] is reported as > 10 µM (not active).
In the case of `COC(=O)c1ccccc1NC(=O)CCCOc1cc(=O)n(C)c2ccccc12`, the EC50 [13] is reported as > 49.7 µM (inactive) and the EC50 [14] is reported as > 49.7 µM (inactive).
With `O=C(CSc1nnc(Cc2ccccc2)n1Cc1ccco1)NC1CCCC1` the IC50 [15] was > 43.8 µM (not active) and the IC50 [16] was > 43.8 µM (not active).
In the case of `COC(=O)c1ccccc1C1c2ccc(O)c(O)c2OC2=C(O)C(=O)C=CC21` (stereo not drawn), the IC50 [17] is reported as > 50 µM (not active).
With `Cc1cc(Br)ccc1SCC(=O)OCC(=O)NCc1ccco1` the IC50 [18] was 2.93 µM (active) and the IC50 [19] was 9.37 µM (active).
For `O=C(O)c1cc(-c2ccc(Cl)c(Cl)c2)n(-c2ccc(F)cc2)n1`, the IC50 [20] was 8.13 µM (active) and the IC50 [21] was > 67 µM (not active).
For `Cc1cc2c3c(c1)C(C)(c1ccccc1)CC(C)(C)N3C(=O)C21C(C#N)=C(N)OC2=C1C(=O)CC(C)(C)C2` (stereo not drawn), the “Absolute IC50 (XBP1)” value [22] was 10 µM, the EC50 [23] was 22 µM (inactive) and the EC50 [24] was 20.4 µM (active). The EC50 [25] was 19.4 µM (active).
For `Cc1ccnc(NS(=O)(=O)c2cc(C(F)(F)F)ccc2Cl)c1`, the EC50 [26] was > 55.7 µM (not active) and the EC50 [27] was > 55.7 µM (not active).
With `CCN(CC)CCOC(=O)c1ccc(NC(=O)COc2cc(=O)n(CC)c3ccccc23)cc1` the IC50 [28] was > 80 µM (inactive).
